Literature values as cited in PubChem BioAssay AID1259409 (Chemical Carcinogenesis Research Information System (CCRIS), 2018).

Tested on: rodent chemically induced tumor inhibition, incidence and multiplicity
Assay: CCRIS tumor inhibitor studies
Conditions: Species: MOUSE

## O=c1c(O)c(-c2ccc(O)c(O)c2)oc2cc(O)cc(O)c12
Carcinogen: 7,12-DIMETHYLBENZ[A]ANTHRACENE, 57-97-6, Dose [Inhibitor]: 30 UMOL IN 100 µL ACETONE/DIMETHYL SULFOXIDE (4/1, V/V) 2/WK 40 MINUTES BEFORE AND CONCURRENTLY WITH EACH PROMOTER TREAT, Route [Inhibitor]: DERMAL, Strain/Sex: ICR/FEMALE, Target Tissue: Type of Lesion: SKIN: PAPILLOMA, Dose [Carcinogen]: 100 UG IN 100 µL ACETONE ONCE, Promoter: TELEOCIDIN, 78474-55-2
  tumour outcome (control, treated, inhibition, significance): 80%, 30%, 63%, not calculated
Carcinogen: 7,12-DIMETHYLBENZ[A]ANTHRACENE, 57-97-6, Dose [Inhibitor]: 100 UG IN 0.2 ML ACETONE ONCE 5 MIN BEFORE CARCINOGEN TREATMENT (STUDY DURATION: 31 WK), Route [Inhibitor]: DERMAL, Strain/Sex: CD-1/FEMALE, Target Tissue: Type of Lesion: SKIN: PAPILLOMA, Dose [Carcinogen]: 10 NMOL IN 0.2 ML ACETONE ONCE, Promoter: 12-O-TETRADECANOYLPHORBOL-13-ACETATE, 16561-29-8
  tumour outcome (control, treated, inhibition, significance): 87%, 70%, 20%, not calculated
Carcinogen: (+/-)-7BETA,8ALPHA-DIHYDROXY-9ALPHA,10ALPHA-EPOXY-7,8,9,10- TETRAHYDROBENZO[A]PYRENE, 58917-67-2, Dose [Inhibitor]: 3000 NMOL IN 0.2 ML ACETONE 1/D FOR 7 D (STUDY DURATION: 18 WK), Route [Inhibitor]: DERMAL, Strain/Sex: SENCAR/FEMALE, Target Tissue: Type of Lesion: SKIN: TUMOR, Dose [Carcinogen]: 200 NMOL IN 0.2 ML ACETONE ONCE 30 MIN POST LAST CARCINOGEN DOSE, Promoter: 12-O-TETRADECANOYLPHORBOL-13-ACETATE, 16561-29-8
  tumour outcome (control, treated, inhibition, significance): 75%, 65%, 13%, not significant
Carcinogen: (+/-)-7BETA,8ALPHA-DIHYDROXY-9ALPHA,10ALPHA-EPOXY-7,8,9,10-TETRAHYDROBENZO[A]PYR ENE, 58917-67-2, Dose [Inhibitor]: 0, 1400 NMOL (TOTAL DOSE) APPLIED 10 MIN PRIOR TO CARCINOGEN DOSE INJECTED AS 1/7, 2/7, AND 4/7 OF THE TOTAL ON DAYS 1,, Route [Inhibitor]: INTRAPERITONEAL, Strain/Sex: ICR/MALE,FEMALE, Target Tissue: Type of Lesion: LUNG: TUMOR, Dose [Carcinogen]: 30 NMOL (TOTAL DOSE) INJECTED IN DOSES OF 1/7, 2/7, AND 4/7 ON DAYS 1, 8, AND 15 OF LIFE, RESPECTIVELY, Promoter: NONE USED
  tumour outcome (control, treated, inhibition, significance): 93%, 81%, 13%, not significant
Carcinogen: (+/-)-7BETA,8ALPHA-DIHYDROXY-9ALPHA,10ALPHA-EPOXY-7,8,9,10-TETRAHYDROBENZO[A]PYR ENE, 58917-67-2, Dose [Inhibitor]: 0, 2500 NMOL IN 200 µL ACETONE:DMSO (90:10) ONCE APPLIED 5 MIN PRIOR TO CARCINOGEN DOSE (STUDY DURATION: 21 WK), Route [Inhibitor]: DERMAL, Strain/Sex: CD-1/FEMALE, Target Tissue: Type of Lesion: SKIN: TUMOR, Dose [Carcinogen]: 200 NMOL IN ACETONE:DMSO (90:10) ONCE, Promoter: 12-O-TETRADECANOYLPHORBOL-13-ACETATE, 16561-29-8
  tumour outcome (control, treated, inhibition, significance): 59%, 69%, -17%, not significant
Carcinogen: AZOXYMETHANE, 25843-45-2, Dose [Inhibitor]: 0, 0.1% IN DIET FOR DURATION OF STUDY (STUDY DURATION: 48 WK), Route [Inhibitor]: ORAL, Strain/Sex: CF-1/FEMALE, Target Tissue: Type of Lesion: COLON: TUMOR, Dose [Carcinogen]: 10 MG/KG BW 3 TIMES, Promoter: NONE USED
  tumour outcome (control, treated, inhibition, significance): 8/32 (25%), 5/32 (16%), 36%, not significant
Carcinogen: AZOXYMETHANE, 25843-45-2, Dose [Inhibitor]: 0, 0.5% IN DIET FOR DURATION OF STUDY (STUDY DURATION: 48 WK), Route [Inhibitor]: ORAL, Strain/Sex: CF-1/FEMALE, Target Tissue: Type of Lesion: COLON: TUMOR, Dose [Carcinogen]: 10 MG/KG BW 3 TIMES, Promoter: NONE USED
  tumour outcome (control, treated, inhibition, significance): 8/32 (25%), 7/35 (20%), 20%, not significant
Carcinogen: AZOXYMETHANE, 25843-45-2, Dose [Inhibitor]: 0, 2% IN DIET FOR DURATION OF STUDY (STUDY DURATION: 48 WK), Route [Inhibitor]: ORAL, Strain/Sex: CF-1/FEMALE, Target Tissue: Type of Lesion: COLON: TUMOR, Dose [Carcinogen]: 10 MG/KG BW 3 TIMES, Promoter: NONE USED
  tumour outcome (control, treated, inhibition, significance): 8/32 (25%), 2/34 (6%), 76%, p=0.003
Carcinogen: BENZO[A]PYRENE, 50-32-8, Dose [Inhibitor]: 0, 1400 NMOL (TOTAL DOSE) APPLIED 10 MIN PRIOR TO CARCINOGEN DOSE INJECTED AS 1/7, 2/7, AND 4/7 OF THE TOTAL ON DAYS 1,, Route [Inhibitor]: INTRAPERITONEAL, Strain/Sex: ICR/MALE,FEMALE, Target Tissue: Type of Lesion: LUNG: TUMOR, Dose [Carcinogen]: 450 NMOL (TOTAL DOSE) INJECTED IN DOSES OF 1/7, 2/7, AND 4/7 ON DAYS 1, 8, AND 15 OF LIFE, RESPECTIVELY, Promoter: NONE USED
  tumour outcome (control, treated, inhibition, significance): 73%, 68%, 7%, not significant
Carcinogen: BENZO[A]PYRENE, 50-32-8, Dose [Inhibitor]: 0, 2500 NMOL IN 200 µL ACETONE:DMSO (90:10) ONCE APPLIED 5 MIN PRIOR TO CARCINOGEN DOSE (STUDY DURATION: 21 WK), Route [Inhibitor]: DERMAL, Strain/Sex: CD-1/FEMALE, Target Tissue: Type of Lesion: SKIN: TUMOR, Dose [Carcinogen]: 50 NMOL IN ACETONE:DMSO (90:10) ONCE, Promoter: 12-O-TETRADECANOYLPHORBOL-13-ACETATE, 16561-29-8
  tumour outcome (control, treated, inhibition, significance): 50%, 45%, 10%, not significant
Carcinogen: BENZO[A]PYRENE, 50-32-8, Dose [Inhibitor]: 0, 12500 NMOL IN 200 µL ACETONE:DMSO (90:10) ONCE APPLIED 5 MIN PRIOR TO CARCINOGEN DOSE (STUDY DURATION: 21 WK), Route [Inhibitor]: DERMAL, Strain/Sex: CD-1/FEMALE, Target Tissue: Type of Lesion: SKIN: TUMOR, Dose [Carcinogen]: 50 NMOL IN ACETONE:DMSO (90:10) ONCE, Promoter: 12-O-TETRADECANOYLPHORBOL-13-ACETATE, 16561-29-8
  tumour outcome (control, treated, inhibition, significance): 50%, 55%, -10%, not significant
Carcinogen: BENZO[A]PYRENE, 50-32-8, Dose [Inhibitor]: 25 MG IN 0.1 ML DMSO 3/WK ADMINISTERED SIMULTANEOUSLY WITH CARCINOGEN FOR DURATION OF STUDY (STUDY DURATION: 368 D), Route [Inhibitor]: DERMAL, Strain/Sex: ICR/FEMALE, Target Tissue: Type of Lesion: SKIN: SQUAMOUS CARCINOMA, Dose [Carcinogen]: 5 UG IN 0.1 ML DMSO THAT ALSO CONTAINED AGENT 3/WK FOR DURATION OF STUDY, Promoter: NONE USED
  tumour outcome (control, treated, inhibition, significance): 6/50 (12%), 0/50 (0%), 100%, not calculated
